# In PubChem BioAssay AID2060624 (Molecular Pharmacology Branch, DTP, NCI, 2025):
# Tested on: 217524-143-R1-J4-PDC spheroids with HUVEC/MSC, viability
# Assay: Anticancer human tumor 217524-143-R1-J4-PDC patient-derived pancreatic carcinoma cell line growth inhibition [CLK]
# Details: for IC50: curve of first compound; for viability, T/C: stronger effect = lower value
# Procedure, shortened: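 Patient-derived tumor cells grown as complex spheroids with HUVEC endothelial cells and mesenchymal stem cells, treated with drug combinations. Concentrations descend in half-log steps from near clinical Cmax, or from 10 microM if Cmax unknown.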
# [1] = second compound 0.0316 µM, first compound 0.0316 µM
# [2] = second compound 0.0316 µM, first compound 0.1 µM
# [3] = second compound 0.0316 µM, first compound 0.316 µM
# [4] = second compound 0.0316 µM, first compound 1 µM
# [5] = second compound 0.0316 µM, first compound 3.16 µM
# [6] = second compound 0.0316 µM, first compound 10 µM
# [7] = second compound 0.1 µM, first compound 0.0316 µM
# [8] = second compound 0.1 µM, first compound 0.1 µM
# [9] = second compound 0.1 µM, first compound 0.316 µM
# [10] = second compound 0.1 µM, first compound 1 µM
# [11] = second compound 0.1 µM, first compound 3.16 µM
# [12] = second compound 0.1 µM, first compound 10 µM
# [13] = second compound 0.316 µM, first compound 0.0316 µM
# [14] = second compound 0.316 µM, first compound 0.1 µM
# [15] = second compound 0.316 µM, first compound 0.316 µM
# [16] = second compound 0.316 µM, first compound 1 µM
# [17] = second compound 0.316 µM, first compound 3.16 µM
# [18] = second compound 0.316 µM, first compound 10 µM
# [19] = second compound 1 µM, first compound 0.0316 µM
# [20] = second compound 1 µM, first compound 0.1 µM
# [21] = second compound 1 µM, first compound 0.316 µM
# [22] = second compound 1 µM, first compound 1 µM
# [23] = second compound 1 µM, first compound 3.16 µM
# [24] = second compound 1 µM, first compound 10 µM
# [25] = second compound 3.16 µM, first compound 0.0316 µM
# [26] = second compound 3.16 µM, first compound 0.1 µM
# [27] = second compound 3.16 µM, first compound 0.316 µM
# [28] = second compound 3.16 µM, first compound 1 µM
# [29] = second compound 3.16 µM, first compound 3.16 µM
# [30] = second compound 3.16 µM, first compound 10 µM
# [31] = second compound 10 µM, first compound 0.0316 µM
# [32] = second compound 10 µM, first compound 0.1 µM
# [33] = second compound 10 µM, first compound 0.316 µM
# [34] = second compound 10 µM, first compound 1 µM
# [35] = second compound 10 µM, first compound 3.16 µM
# [36] = second compound 10 µM, first compound 10 µM
# 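Note: spheroids exposed to agents for seven days before reading.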
# 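Throughout, for viability, T/C: 100% = DMSO vehicle control viability.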
compound,measurement,setting,value
C=CC(=O)N1CCN(c2nc(=O)n(-c3c(C)ccnc3C(C)C)c3nc(-c4c(O)cccc4F)c(F)cc23)C(C)C1 (centres undefined) + CNC(=O)c1ccc(Nc2nc(OC3CCCC3)c3c(-c4ccc5nc(C)oc5c4)c[nH]c3n2)c(OC)c1,IC50,second compound 0.0316 µM,> 10 µM
same,IC50,second compound 0.1 µM,< 0.0316 µM
same,IC50,second compound 0.316 µM,< 0.0316 µM
same,IC50,second compound 1 µM,< 0.0316 µM
same,IC50,second compound 3.16 µM,< 0.0316 µM
same,IC50,second compound 10 µM,< 0.0316 µM
same,"viability, T/C",[1],99.7%
same,"viability, T/C",[2],96.5%
same,"viability, T/C",[3],82.2%
same,"viability, T/C",[4],102%
same,"viability, T/C",[5],123%
same,"viability, T/C",[6],118%
same,"viability, T/C",[7],44.1%
same,"viability, T/C",[8],47.4%
same,"viability, T/C",[9],41.4%
same,"viability, T/C",[10],49.9%
same,"viability, T/C",[11],58.5%
same,"viability, T/C",[12],55.8%
same,"viability, T/C",[13],34.6%
same,"viability, T/C",[14],31.3%
same,"viability, T/C",[15],50.8%
same,"viability, T/C",[16],41.4%
same,"viability, T/C",[17],49%
same,"viability, T/C",[18],43.4%
same,"viability, T/C",[19],24.7%
same,"viability, T/C",[20],27.6%
same,"viability, T/C",[21],32.8%
same,"viability, T/C",[22],39.2%
same,"viability, T/C",[23],36.4%
same,"viability, T/C",[24],30%
same,"viability, T/C",[25],24.9%
same,"viability, T/C",[26],29.8%
same,"viability, T/C",[27],31%
same,"viability, T/C",[28],30.2%
same,"viability, T/C",[29],36.8%
same,"viability, T/C",[30],27.9%
same,"viability, T/C",[31],27.9%
same,"viability, T/C",[32],27.9%
same,"viability, T/C",[33],31.7%
same,"viability, T/C",[34],31.9%
same,"viability, T/C",[35],34.2%
same,"viability, T/C",[36],29.1%
COC1C=CCC(C)C(C)S(=O)(=O)NC(=O)c2ccc3c(c2)N(CC2CCC21)CC1(CCCc2cc(Cl)ccc21)CO3 (centres undefined) + CNC(=O)c1ccc(Nc2nc(OC3CCCC3)c3c(-c4ccc5nc(C)oc5c4)c[nH]c3n2)c(OC)c1,IC50,second compound 0.0316 µM,7.69 µM
same,IC50,second compound 0.1 µM,< 0.0316 µM
same,IC50,second compound 0.316 µM,< 0.0316 µM
same,IC50,second compound 1 µM,< 0.0316 µM
same,IC50,second compound 3.16 µM,< 0.0316 µM
same,IC50,second compound 10 µM,< 0.0316 µM
same,"viability, T/C",[1],83.2%
same,"viability, T/C",[2],91.3%
same,"viability, T/C",[3],95.8%
same,"viability, T/C",[4],114%
same,"viability, T/C",[5],108%
same,"viability, T/C",[6],35.6%
same,"viability, T/C",[7],46.6%
same,"viability, T/C",[8],43.9%
same,"viability, T/C",[9],72.9%
same,"viability, T/C",[10],75.3%
same,"viability, T/C",[11],91.2%
same,"viability, T/C",[12],33.1%
same,"viability, T/C",[13],34.2%
same,"viability, T/C",[14],38.8%
same,"viability, T/C",[15],39.4%
same,"viability, T/C",[16],29.6%
same,"viability, T/C",[17],31.9%
same,"viability, T/C",[18],33.7%
same,"viability, T/C",[19],30.1%
same,"viability, T/C",[20],29.3%
same,"viability, T/C",[21],27.4%
same,"viability, T/C",[22],22.1%
same,"viability, T/C",[23],20.9%
same,"viability, T/C",[24],24.2%
same,"viability, T/C",[25],26.9%
same,"viability, T/C",[26],25.1%
same,"viability, T/C",[27],22.3%
same,"viability, T/C",[28],20.6%
same,"viability, T/C",[29],23.5%
same,"viability, T/C",[30],23.9%
same,"viability, T/C",[31],29.8%
same,"viability, T/C",[32],21%
same,"viability, T/C",[33],17.9%
same,"viability, T/C",[34],18.5%
same,"viability, T/C",[35],17.5%
same,"viability, T/C",[36],22.3%
